Assay results reported in paper PMC9457941, “Synthesis and Kinase Inhibitory Potencies of Pyrazolo[3,4-g]isoquinolines” (Molecules, 2022).

Legend:
[1] = biological target: T1, Haspin-kd (human, kinase domain, amino acids 470–798) (Homo sapiens, UniProt Q8TF76); test: ADP-Glo kinase inhibition assay, Haspin; type: biochemical; conditions: for IC50: 10 μM ATP, duplicate; for remaining activity at 1 µM: read-out: Haspin % residual activity at 1 μM; for remaining activity at 10 µM: read-out: Haspin % residual activity at 10 μM
T1 construct: Haspin-kd (human, kinase domain, amino acids 470–798, recombinant, expressed in bacteria); host or cells: bacteria
T1 sequence (Q8TF76 470-798): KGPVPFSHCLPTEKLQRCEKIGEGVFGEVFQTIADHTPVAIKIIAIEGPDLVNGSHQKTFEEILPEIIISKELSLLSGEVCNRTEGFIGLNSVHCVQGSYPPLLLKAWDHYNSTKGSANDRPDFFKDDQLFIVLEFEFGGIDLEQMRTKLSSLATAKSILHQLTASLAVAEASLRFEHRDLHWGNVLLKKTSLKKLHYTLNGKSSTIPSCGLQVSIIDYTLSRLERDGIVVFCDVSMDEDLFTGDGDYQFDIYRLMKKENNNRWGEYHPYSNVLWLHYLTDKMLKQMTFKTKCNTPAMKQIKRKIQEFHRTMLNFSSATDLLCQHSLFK
Method: (§1) Kinase enzymatic activities were assayed in 384 well plates using the ADP-GloTM assay kit (Promega, Madison, WI, USA) according to the manufacturer’s guidance. Briefly, the reactions were carried out in a final volume of 6 μL for 30 min at 30 °C in an appropriate kinase buffer (10 mM MgCl2, 1 mM EGTA, 1 mM DTT, 25 mM Tris-HCl pH 7.5, 50 μg/mL heparin), with either protein or peptide as substrate in the presence of 10 μM ATP (40 mM Tris pH 7.5, 20 mM MgCl2 and 0.1 mg/mL of BSA). Afterward, 6 μL of ADP-GloTM Kinase Reagent was added to stop the kinase reaction. After an incubation time of 50 min at room temperature (RT), 12 μL of Kinase Detection Reagent was added for 1 h at RT. The transmitted signal was measured using the Envision (Perkin Elmer, Waltham, MA, USA) microplate luminometer and expressed in relative light unit (RLU). In order to determine the half maximal inhibitory concentration (IC50), the assays were performed in duplicate in the absence or presence of increasing doses of the tested compounds. GraphPad Prism6 software (GraphPad Software, San Diego, CA, USA) was used to fit dose–response curves and to determine the IC50 values. Kinase activities are expressed in the percentage of maximal activity, i.e., measured in the absence of an inhibitor. Peptide substrates were obtained from Proteogenix (Schiltigheim, France).

MmCLK1 = biological target: T2, MmCLK1 (Mus musculus, UniProt P22518); test: ADP-Glo kinase inhibition assay, CLK1; type: biochemical; conditions: for IC50: 10 μM ATP, duplicate, read-out: CLK1 IC50; for remaining activity at 1 µM: read-out: CLK1 % residual activity at 1 μM; for remaining activity at 10 µM: read-out: CLK1 % residual activity at 10 μM
T2 construct: host or cells: bacteria
T2 sequence (P22518 whole entry): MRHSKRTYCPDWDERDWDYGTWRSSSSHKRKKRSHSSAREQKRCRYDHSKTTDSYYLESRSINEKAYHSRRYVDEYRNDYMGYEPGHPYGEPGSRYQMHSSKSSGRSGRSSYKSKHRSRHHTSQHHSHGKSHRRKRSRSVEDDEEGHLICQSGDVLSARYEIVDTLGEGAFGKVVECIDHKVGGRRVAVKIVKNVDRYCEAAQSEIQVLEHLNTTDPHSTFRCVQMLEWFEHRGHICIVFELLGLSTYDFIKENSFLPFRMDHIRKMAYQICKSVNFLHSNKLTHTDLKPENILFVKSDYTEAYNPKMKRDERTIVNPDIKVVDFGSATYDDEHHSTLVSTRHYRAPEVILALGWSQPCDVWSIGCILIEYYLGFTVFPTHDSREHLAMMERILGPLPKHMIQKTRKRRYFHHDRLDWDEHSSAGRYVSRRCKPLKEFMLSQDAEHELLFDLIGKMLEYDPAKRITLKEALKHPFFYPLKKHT
Method: as §1
(§2) The following protein kinases were analyzed in this study: CDK5/p25 (human, recombinant, expressed in bacteria) was assayed with 0.8 μg/μL of histone H1 as substrate; CDK9/CyclinT (human, recombinant, expressed by baculovirus in Sf9 insect cells) were assayed with 0.27 μg/μL of the following peptide: […], as substrate; CK1ε (human, recombinant, expressed by baculovirus in Sf9 insect cells) was assayed with 0.022 μg/μL of the following peptide: […]pAYSITA (“Sp” stands for phosphorylated serine) as CK1-specific substrate; GSK3β (human, recombinant, expressed by baculovirus in Sf9 insect cells) were assayed with 0.010 μg/μL of GS-1 peptide, a GSK-3-selective substrate ([…]pEDEEE); Haspin-kd (human, kinase domain, amino acids 470–798, recombinant, expressed in bacteria) was assayed with 0.007 μg/μL of histone H3 (1–21) peptide ([…]) as substrate; Pim-1 (human proto-oncogene, recombinant, expressed in bacteria) was assayed with 0.8 μg/μL of histone H1 as substrate; MmCLK1 (from Mus musculus, recombinant, expressed in bacteria) was assayed with 0.027 μg/μL of the following peptide: […] as substrate; RnDYRK1A-kd (Rattus norvegicus, amino acids 1–499 including the kinase domain, recombinant, expressed in bacteria, DNA vector kindly provided by Dr. W. Becker, Aachen, Germany) was assayed with 0.033 μg/μL of the following peptide: […] as substrate.

RnDYRK1A-kd = biological target: T3, RnDYRK1A-kd (Rattus norvegicus, UniProt Q63470); test: ADP-Glo kinase inhibition assay, DYRK1A; type: biochemical; conditions: for remaining activity at 1 µM: read-out: DYRK1A % residual activity at 1 μM; for remaining activity at 10 µM: read-out: DYRK1A % residual activity at 10 μM; for IC50: 10 μM ATP, duplicate, read-out: DYRK1A IC50
T3 construct: RnDYRK1A-kd (Rattus norvegicus, amino acids 1–499 including the kinase domain, recombinant, expressed in bacteria); made in house; host or cells: bacteria
Method: as §1, §2

CDK9/CyclinT = biological target: T4, CDK9/CyclinT (Homo sapiens, UniProt P50750); test: ADP-Glo kinase inhibition assay, CDK9/CyclinT; type: biochemical; conditions: for IC50: 10 μM ATP, duplicate; for remaining activity at 1 µM: read-out: CDK9 % residual activity at 1 μM; for remaining activity at 10 µM: read-out: CDK9 % residual activity at 10 μM
T4 construct: host or cells: Sf9 insect cells (baculovirus)
T4 sequence (O60563 whole entry): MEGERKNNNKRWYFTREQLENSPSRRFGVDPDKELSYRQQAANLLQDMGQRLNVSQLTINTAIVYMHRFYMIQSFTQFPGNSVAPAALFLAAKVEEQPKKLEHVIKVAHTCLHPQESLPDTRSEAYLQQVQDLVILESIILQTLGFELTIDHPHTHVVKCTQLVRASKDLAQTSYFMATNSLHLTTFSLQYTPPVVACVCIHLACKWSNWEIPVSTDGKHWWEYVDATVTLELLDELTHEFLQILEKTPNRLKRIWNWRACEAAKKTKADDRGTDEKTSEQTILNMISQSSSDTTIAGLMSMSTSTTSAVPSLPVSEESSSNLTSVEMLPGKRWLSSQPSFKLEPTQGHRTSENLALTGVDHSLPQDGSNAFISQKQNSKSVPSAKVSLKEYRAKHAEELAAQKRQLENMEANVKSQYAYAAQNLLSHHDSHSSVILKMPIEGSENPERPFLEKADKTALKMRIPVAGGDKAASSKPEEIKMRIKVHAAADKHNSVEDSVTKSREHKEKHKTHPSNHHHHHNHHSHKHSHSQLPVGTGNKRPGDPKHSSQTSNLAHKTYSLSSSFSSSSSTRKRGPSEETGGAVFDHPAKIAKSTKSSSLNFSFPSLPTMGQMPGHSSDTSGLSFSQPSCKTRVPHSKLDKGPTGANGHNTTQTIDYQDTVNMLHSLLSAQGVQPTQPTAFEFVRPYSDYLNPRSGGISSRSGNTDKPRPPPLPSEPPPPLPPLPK
T4 sequence (P50750 whole entry): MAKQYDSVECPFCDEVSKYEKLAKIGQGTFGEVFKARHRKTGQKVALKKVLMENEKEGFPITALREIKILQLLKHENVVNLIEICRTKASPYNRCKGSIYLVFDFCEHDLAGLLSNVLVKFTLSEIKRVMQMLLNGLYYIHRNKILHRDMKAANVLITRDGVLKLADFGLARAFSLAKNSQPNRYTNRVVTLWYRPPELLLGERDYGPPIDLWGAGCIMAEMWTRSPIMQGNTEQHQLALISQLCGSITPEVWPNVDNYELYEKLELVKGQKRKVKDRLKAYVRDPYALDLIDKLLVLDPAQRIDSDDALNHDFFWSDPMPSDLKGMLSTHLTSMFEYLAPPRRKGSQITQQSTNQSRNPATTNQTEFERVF
Method: as §1, §2

GSK3β = biological target: T5, GSK3β (Homo sapiens, UniProt P49841); test: ADP-Glo kinase inhibition assay, GSK3β; type: biochemical; conditions: for IC50: 10 μM ATP, duplicate, read-out: GSK3 IC50; for remaining activity at 1 µM: read-out: GSK3 % residual activity at 1 μM; for remaining activity at 10 µM: read-out: GSK3 % residual activity at 10 μM
T5 construct: host or cells: Sf9 insect cells (baculovirus)
T5 sequence (P49841 whole entry): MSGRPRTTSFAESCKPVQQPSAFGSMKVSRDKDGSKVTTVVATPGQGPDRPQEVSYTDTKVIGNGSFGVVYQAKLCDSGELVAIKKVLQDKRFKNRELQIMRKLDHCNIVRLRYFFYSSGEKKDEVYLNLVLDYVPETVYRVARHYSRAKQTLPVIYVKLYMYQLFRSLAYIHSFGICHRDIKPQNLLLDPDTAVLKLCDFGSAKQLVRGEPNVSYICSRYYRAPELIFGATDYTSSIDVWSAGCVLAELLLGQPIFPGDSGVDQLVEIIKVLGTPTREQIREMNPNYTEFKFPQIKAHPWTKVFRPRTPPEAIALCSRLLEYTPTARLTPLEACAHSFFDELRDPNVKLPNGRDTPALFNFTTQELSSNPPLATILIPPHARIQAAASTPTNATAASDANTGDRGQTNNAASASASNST
Method: as §1, §2

CK1ε = biological target: T6, CK1ε (Homo sapiens, UniProt P49674); test: ADP-Glo kinase inhibition assay, CK1ε; type: biochemical; conditions: 10 μM ATP, duplicate; for remaining activity at 1 µM: 1 μM compound, read-out: CK1 % residual activity at 1 μM; for remaining activity at 10 µM: 10 μM compound, read-out: CK1 % residual activity at 10 μM
T6 construct: host or cells: Sf9 insect cells (baculovirus)
T6 sequence (P49674 whole entry): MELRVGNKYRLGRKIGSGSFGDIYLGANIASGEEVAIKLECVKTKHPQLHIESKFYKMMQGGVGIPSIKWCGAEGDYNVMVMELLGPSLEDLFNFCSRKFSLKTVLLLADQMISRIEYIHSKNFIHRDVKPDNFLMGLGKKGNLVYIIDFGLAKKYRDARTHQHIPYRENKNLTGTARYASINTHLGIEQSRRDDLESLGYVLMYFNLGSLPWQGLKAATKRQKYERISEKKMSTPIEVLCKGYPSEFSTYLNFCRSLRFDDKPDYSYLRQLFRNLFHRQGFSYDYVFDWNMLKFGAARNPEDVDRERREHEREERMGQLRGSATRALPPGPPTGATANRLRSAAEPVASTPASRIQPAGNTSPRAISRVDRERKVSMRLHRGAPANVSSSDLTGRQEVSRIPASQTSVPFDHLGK
Method: as §1, §2

CDK5/p25 = biological target: T7, CDK5/p25 (Homo sapiens, UniProt Q00535); test: ADP-Glo kinase inhibition assay, CDK5/p25; type: biochemical; conditions: for remaining activity at 1 µM: read-out: CDK5 % residual activity at 1 μM; for remaining activity at 10 µM: read-out: CDK5 % residual activity at 10 μM
T7 construct: host or cells: bacteria
T7 sequence (Q00535 whole entry): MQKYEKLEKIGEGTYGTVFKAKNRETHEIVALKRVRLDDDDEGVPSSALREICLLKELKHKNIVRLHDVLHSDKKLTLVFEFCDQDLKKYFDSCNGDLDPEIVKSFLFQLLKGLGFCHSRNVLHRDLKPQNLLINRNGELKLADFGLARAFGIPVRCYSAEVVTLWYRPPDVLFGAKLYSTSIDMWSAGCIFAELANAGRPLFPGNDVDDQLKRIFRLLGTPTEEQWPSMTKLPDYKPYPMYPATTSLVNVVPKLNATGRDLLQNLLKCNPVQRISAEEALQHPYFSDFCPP
T7 sequence (Q15078 99-307, further chain): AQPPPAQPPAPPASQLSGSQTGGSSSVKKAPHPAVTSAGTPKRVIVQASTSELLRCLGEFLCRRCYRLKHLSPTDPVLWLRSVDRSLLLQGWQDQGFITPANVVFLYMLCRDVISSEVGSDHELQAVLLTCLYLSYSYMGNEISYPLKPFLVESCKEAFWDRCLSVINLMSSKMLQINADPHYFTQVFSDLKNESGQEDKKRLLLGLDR
Method: as §1, §2

Pim-1 = biological target: T8, Pim-1 (Homo sapiens, UniProt P11309); test: ADP-Glo kinase inhibition assay, Pim-1; type: biochemical; conditions: 10 μM ATP, duplicate; for remaining activity at 1 µM: 1 μM compound, read-out: PIM1 % residual activity at 1 μM; for remaining activity at 10 µM: 10 μM compound, read-out: PIM1 % residual activity at 10 μM
T8 construct: host or cells: bacteria
T8 sequence (P11309 whole entry): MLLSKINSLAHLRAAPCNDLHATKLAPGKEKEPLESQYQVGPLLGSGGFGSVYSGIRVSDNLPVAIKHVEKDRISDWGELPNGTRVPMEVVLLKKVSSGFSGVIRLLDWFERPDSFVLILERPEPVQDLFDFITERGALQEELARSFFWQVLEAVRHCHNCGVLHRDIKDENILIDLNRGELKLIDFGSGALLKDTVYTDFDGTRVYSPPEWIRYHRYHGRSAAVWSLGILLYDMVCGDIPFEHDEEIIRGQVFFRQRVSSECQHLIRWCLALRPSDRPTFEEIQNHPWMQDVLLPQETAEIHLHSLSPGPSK
Method: as §1, §2

[2] = tested on: Haspin, CLK1, DYRK1A, CDK9/Cyclin T, GSK-3β, CK1ε, CDK5/p25 and Pim1; test: Panel of eight protein kinases (ADP-Glo), statements across kinases; type: biochemical; conditions: 1 μM compound
Method: It should be noted that due to solubility issues, compound 1a could not be tested; only the corresponding methane sulfonate salt 1a’ was evaluated. The percentage of residual kinase activity was evaluated at 10 μM and 1 μM compound concentrations. […].
as §1, with “GraphPad Prism6 software (GraphPad Software, San Diego, CA, USA) was used to fit dose–response curves and to determine the IC50 values.” left out, “Peptide substrates were obtained from Proteogenix (Schiltigheim, France).” left out

panel of 486 kinases = conditions: cited from earlier work

SMILES	melting point	IC50 [1]	remaining activity at 1 µM [1]	remaining activity at 10 µM [1]	IC50 (MmCLK1)	remaining activity at 1 µM (MmCLK1)	remaining activity at 10 µM (MmCLK1)	remaining activity at 1 µM (RnDYRK1A-kd)	remaining activity at 10 µM (RnDYRK1A-kd)	IC50 (CDK9/CyclinT)	remaining activity at 1 µM (CDK9/CyclinT)	remaining activity at 10 µM (CDK9/CyclinT)	remaining activity at 1 µM (GSK3β)	remaining activity at 10 µM (GSK3β)	remaining activity at 1 µM (CK1ε)	remaining activity at 10 µM (CK1ε)	remaining activity at 1 µM (CDK5/p25)	remaining activity at 10 µM (CDK5/p25)	remaining activity at 1 µM (Pim-1)	remaining activity at 10 µM (Pim-1)	also measured
CS(=O)(=O)O.O=[N+]([O-])c1c2ccncc2cc2cn[nH]c12	> 250 °C	–	–	–	–	–	–	–	–	–	–	–	–	–	–	–	–	–	–	–	–
CCn1ncc2c(C3CC3)c3cnccc3c([N+](=O)[O-])c21 [Compound 3d, 4-Cyclopropyl-1-ethyl-9-nitro-1H-pyrazolo[3,4-g]isoquinoline]	97 °C	312 nM	21%	12%	229 nM	24%	5%	67%	29%	266 nM	33%	11%	17%	5%	61%	15%	67%	24%	99%	82%	IC50 (GSK3β): 226 nM
Cn1ncc2cc3cnccc3c(N)c21 [Compound 2b, 1-Methyl-1H-pyrazolo[3,4-g]isoquinolin-9-amine]	174 to 175 °C	112 nM	10%	14%	548 nM	36%	8%	18%	5%	578 nM	39%	15%	68%	44%	77%	42%	72%	60%	91%	71%	Selectivity Index (SI) Haspin vs. DYRK1A ([1]; Haspin vs. DYRK1A, which was more inhibited than CLK1): 2.4; IC50 (RnDYRK1A-kd): 273 nM
O=[N+]([O-])c1c2ccncc2cc2cn[nH]c12	> 250 °C	–	–	–	–	–	–	–	–	–	–	–	–	–	–	–	–	–	–	–	–
CCCCc1c2cnccc2c([N+](=O)[O-])c2c1cnn2CC [Compound 3e, 4-Butyl-1-ethyl-9-nitro-1H-pyrazolo[3,4-g]isoquinoline]	–	–	78%	19%	–	58%	16%	72%	16%	–	33%	10%	39%	10%	100%	60%	82%	57%	78%	35%	–
Nc1c2ccncc2cc2cn[nH]c12 [Compound 2a, 1-H-pyrazolo[3,4-g]isoquinolin-9-amine]	> 250 °C	127 nM	13%	8%	296 nM	20%	8%	32%	12%	430 nM	22%	10%	48%	18%	71%	28%	45%	17%	100%	90%	Selectivity Index (SI) Haspin vs. CLK1 = CLK1 IC50/Haspin IC50 ([1]; Haspin vs. CLK1): 2.3; IC50 (RnDYRK1A-kd): 600 nM; IC50 (GSK3β): 411 nM; IC50 (CDK5/p25; 10 μM ATP, duplicate): 927 nM; kinases inhibited to more than 50% at 1 μM [2]: six out of eight
COc1ncc2cc3cnccc3c([N+](=O)[O-])c2n1 [I]	–	–	–	–	–	–	–	–	–	–	–	–	–	–	–	–	–	–	–	–	kinases inhibited when tested on a large panel of 486 kinases (panel of 486 kinases): 12%
CCn1ncc2cc3cncc(Br)c3c([N+](=O)[O-])c21 [Compound 4, 8-Bromo-1-ethyl-9-nitro-1H-pyrazolo[3,4-g]isoquinoline]	–	–	77%	23%	–	42%	18%	52%	25%	–	59%	18%	88%	80%	100%	80%	92%	32%	77%	54%	inhibition at 1 µM ([1]; read-out: Haspin inhibition at 1 μM, 1 μM compound, % inhibition): 23%
